Measured values reported in US11691968B2, “Compound having KDM5 inhibitory activity and pharmaceutical use thereof” (ONO PHARMACEUTICAL CO., LTD., priority 2020, dated 2023).
Read-outs that look alike come from different tables or passages of the source.

Columns and labels:
[1] = Metabolic Stability in Human Liver Microsomes; format: in vitro ADME
Method: Metabolic Stability in Human Liver Microsomes
Human liver microsome (BD Gentest Corporation, Cat No. #452161) incubations were conducted in duplicate in 96-well plates. Each well contains 40 μL of 0.1 M potassium phosphate buffer (pH 7.4), 4.125 mM MgCl2, 0.625 mg/mL liver microsomes, and test compound (1.25 μM). After 5-min preincubation at 37° C., 10 uL of 5.0 mM NADPH in 0.1M potassium phosphate buffer was added to initiate the enzymatic reaction. The final component concentrations are 0.1M potassium phosphate buffer (pH 7.4), 1.0 mM NADPH, 3.3 mM MgCl2, 0.5 mg/mL liver microsomes, and test compound (1.0 μM). Reactions were terminated at 0 and 60 min by adding 200 μL of ice-cold acetonitrile containing internal standard.
LC-MS/MS analysis was conducted as specified below.
The remaining at 60 min (%) of test compound was calculated from the peak area ratio (test compound/internal standard) of samples collected 0 and 60 min after the start of the reaction according to the formula described below. Remaining at 60 min (%)=peak area ratio of sample collected at 60 min/peak area ratio of sample collected at 0 min×100 [Results]

KDM5A = KDM5A (Homo sapiens (Human), UniProt P29375); experiment: Biochemical KDM5A Inhibition Assay (HTRF); conditions: KDM5A protein, biotin-labelled H3K4-Me3 substrate
Method: Biochemical KDM5A Inhibition Assay
Using 384-well white Greiner784075 (Greiner), representative compounds were characterized for their inhibition of KDM5A using HTRF® technology (Cisbio Bioassays). Briefly, the test compounds, reference compounds, and DMSO control (typical compound concentration range 1 μM-[…], final assay concentration (FAC*) of DMSO 0.5%) were added to 384-well plate by the Echo® acoustic dispensing platform (Labcyte). Five (5) 1l of KDM5A protein (produced by the method described in Nat Chem Biol 12, 531-538 (2016)). (5-20 nM FAC*) in assay buffer (50 mM MES, 50 mM NaCl, 1 mM TCEP, 0.01% v/v Tween 20, 0.03% BSA, pH 6.5) was added to wells and plates were incubated for 10-20 minutes at 25 degrees celsius. Then, 5 μl of alpha-ketoglutaric acid (100 μM FAC*), biotin-labelled H3K4-Me3 substrate (Anaspec Cat #AS-64357-1; 200 nM FAC*), Fe(II)SO4 (100 μM FAC*) and ascorbic acid (2 mM FAC*) in assay buffer was added to wells and plates were incubated for 20 minutes at room temperature. The reaction was stopped with the addition of 10 μl of anti-H3K4-Me2-Eu(K) (Cisbio Bioassays Cat #61KA2KAH; 0.75 nM FAC**)+Streptavidin XL665 (Cisbio Bioassays Cat #610SAXLB; 25 nM FAC**) in HTRF detection buffer (Cisbio Bioassays Cat #62SDBRDF). The mixture was incubated for 30 minutes at room temperature before 340 nm excitation and measurement of dual emission at 620 nm and 665 run. *FAC: final assay concentration calculated based on 10 μl of the assay buffer**FAC: final assay concentration calculated based on 20 μl of the detection buffer
The raw data (a 665 nm and a 620 nm reading from each well) for individual assay plates were analyzed. The ratio of emissions was calculated using the following calculation: Ratio=(665 nm emission/620 nm emission)×10000. […] Compound IC50 values were calculated from graphs of % inhibition plotted against compound concentration, using a four parameter curve fit. [Results]

[2] = Brain Concentration in Mice; format: in vivo; conditions: mouse, mice (C57BL/6), read-out: Unbound-Brain Concentration at 2 h at 1 mg/kg
Method: Brain Concentration in Mice
Test compounds were orally administered to mice (C57BL/6) at 1 or 3 mg/kg. Brain samples were collected 2 h after the administration and homogenized with 3-fold volumes of distilled water.
LC-MS/MS analysis was conducted as specified below. Standard calibration samples were prepared using the same matrix and analyzed in the same manner.
Standard calibration samples were analyzed to calculate a regression equation from the peak area ratio (test compound/internal standard). The peak area ratio was determined for a measurement sample and assigned to the regression equation to calculate an assay value.

[3] = 0.5 mg/mL liver microsomes, 1.0 μM test compound, 1.0 mM NADPH, 37° C., 60 min
[4] = po, orally administered, 1 mg/kg, brain 2 h after administration
[5] = human, microsomes, 1 h, 1 μM, pH 7.4

KDM5A, sequence (P29375 whole entry): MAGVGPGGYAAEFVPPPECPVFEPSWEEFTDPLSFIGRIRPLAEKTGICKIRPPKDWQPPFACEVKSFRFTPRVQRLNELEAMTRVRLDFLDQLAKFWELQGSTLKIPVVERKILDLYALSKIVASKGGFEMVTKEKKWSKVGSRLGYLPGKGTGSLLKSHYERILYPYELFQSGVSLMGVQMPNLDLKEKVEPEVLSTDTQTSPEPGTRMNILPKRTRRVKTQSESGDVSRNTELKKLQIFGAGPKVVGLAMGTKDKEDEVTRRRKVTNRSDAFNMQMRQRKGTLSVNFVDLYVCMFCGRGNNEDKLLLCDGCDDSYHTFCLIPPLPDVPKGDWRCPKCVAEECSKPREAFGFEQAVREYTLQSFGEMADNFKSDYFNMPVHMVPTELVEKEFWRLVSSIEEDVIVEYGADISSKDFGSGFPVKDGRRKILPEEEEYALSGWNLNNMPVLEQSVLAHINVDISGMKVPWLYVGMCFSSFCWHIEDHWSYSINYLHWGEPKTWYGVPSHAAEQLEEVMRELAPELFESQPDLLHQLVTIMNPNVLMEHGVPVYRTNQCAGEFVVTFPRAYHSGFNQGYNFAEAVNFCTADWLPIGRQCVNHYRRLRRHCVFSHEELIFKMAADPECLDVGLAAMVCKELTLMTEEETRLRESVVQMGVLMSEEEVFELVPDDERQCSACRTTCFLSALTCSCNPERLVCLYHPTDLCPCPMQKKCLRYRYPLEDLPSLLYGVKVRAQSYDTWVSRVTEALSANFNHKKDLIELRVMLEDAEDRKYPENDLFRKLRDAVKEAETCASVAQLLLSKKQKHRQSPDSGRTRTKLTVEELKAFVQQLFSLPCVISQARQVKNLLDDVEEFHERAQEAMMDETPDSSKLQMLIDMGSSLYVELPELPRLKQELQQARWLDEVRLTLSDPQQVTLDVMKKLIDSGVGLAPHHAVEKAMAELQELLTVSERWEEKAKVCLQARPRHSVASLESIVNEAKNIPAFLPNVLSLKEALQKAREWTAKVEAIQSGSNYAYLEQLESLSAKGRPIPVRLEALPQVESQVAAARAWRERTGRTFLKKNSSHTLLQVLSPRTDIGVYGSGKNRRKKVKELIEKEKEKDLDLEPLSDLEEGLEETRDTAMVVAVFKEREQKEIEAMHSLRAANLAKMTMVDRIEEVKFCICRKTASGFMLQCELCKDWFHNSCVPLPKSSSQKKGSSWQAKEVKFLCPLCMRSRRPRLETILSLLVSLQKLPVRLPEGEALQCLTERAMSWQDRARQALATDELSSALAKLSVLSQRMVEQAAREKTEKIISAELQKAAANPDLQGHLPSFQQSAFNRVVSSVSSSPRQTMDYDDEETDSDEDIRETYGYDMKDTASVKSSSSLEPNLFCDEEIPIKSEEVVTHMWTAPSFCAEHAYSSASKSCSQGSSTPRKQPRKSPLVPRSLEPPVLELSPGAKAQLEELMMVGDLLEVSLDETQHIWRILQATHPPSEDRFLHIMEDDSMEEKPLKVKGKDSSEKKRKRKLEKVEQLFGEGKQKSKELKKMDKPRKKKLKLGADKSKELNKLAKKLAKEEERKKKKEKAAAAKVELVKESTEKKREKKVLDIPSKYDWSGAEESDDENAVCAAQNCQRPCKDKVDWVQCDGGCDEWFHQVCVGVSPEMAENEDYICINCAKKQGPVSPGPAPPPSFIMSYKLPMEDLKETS

IC50 (KDM5A) [nM]	Metabolic stability in human liver microsomes (% remaining at 60 min) [1, 5] [%]	concentration at 2 h ([2]; brain, oral, 2 h, values with * obtained by proportional calculation from the 3 mg/kg data) [ng/g]	Structure (SMILES)	Metabolic stability in human liver microsomes (% remaining at 60 min) [1, 3] [%]	concentration at 2 h [2, 4] [ng/g]
60	100		CC(C)n1cnc(C(=O)N2C[C@@H]3[C@H](C2)[C@@]3(C)C2=NOC(C)(C)C2)c1 [Example 81, [(1R,5S,6r)-6-(5,5-dimethyl-4,5-dihydro-1,2-oxazol-3-yl)-6-methyl-3-azabicyclo[3.1.0]hex-3-yl](1-isopropyl-1H-imidazol-4-yl)methanone]		21.9
30	104		CC1(C)CC([C@@]2(C)[C@@H]3CN(C(=O)c4cn(C5CC5)cn4)C[C@@H]32)=NO1 [Example 82, (1-cyclopropyl-1H-imidazol-4-yl)[(1R,5S,6r)-6-(5,5-dimethyl-4,5-dihydro-1,2-oxazol-3-yl)-6-methyl-3-azabicyclo[3.1.0]hex-3-yl]methanone]		57.4
70	95	39.5	CC(C)c1cc(C(=O)N2C[C@@H]3[C@H](C2)[C@H]3C2=NOC(C)(C)C2)n[nH]1 [Example 88, [(1R,5S,6r)-6-(5,5-dimethyl-4,5-dihydro-1,2-oxazol-3-yl)-3-azabicyclo[3.1.0]hex-3-yl](5-isopropyl-1H-pyrazol-3-yl)methanone]		

Structure (SMILES)	IC50 (KDM5A) [nM]	Metabolic stability in human liver microsomes (% remaining at 60 min) [1, 5] [%]	concentration at 2 h ([2]; brain, oral, 2 h, values with * obtained by proportional calculation from the 3 mg/kg data) [ng/g]	Metabolic stability in human liver microsomes (% remaining at 60 min) [1, 3] [%]	concentration at 2 h [2, 4] [ng/g]
O=C(c1cn(C2CC2)cn1)N1C[C@@H]2[C@H](C1)[C@H]2C1=NOC2(CC2)C1 [Example 51, (1-cyclopropyl-1H-imidazol-4-yl)[(1R,5S,6r)-6-(4-oxa-5-azaspiro[2.4]hept-5-en-6-yl)-3-azabicyclo[3.1.0]hex-3-yl]methanone]	20			95	55.3
C[C@]1(C2=NOC3(CC3)C2)[C@@H]2CN(C(=O)c3cn(C4CC4)cn3)C[C@@H]21 [Example 85, (1-cyclopropyl-1H-imidazol-4-yl)[(1R,5S,6r)-6-methyl-6-(4-oxa-5-azaspiro[2.4]hept-5-en-6-yl)-3-azabicyclo[3.1.0]hex-3-yl]methanone]	20			98	76.7
